ChEMBL document CHEMBL1201862, “PubChem BioAssay data set” (2004)
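Dose response: 5 concentrations. Exposure: 48 h. Format: 96-well plates. Endpoint: linear interpolation; highest concentration if not reached. Here, GI50 denotes the concentration required for 50% inhibition of growth.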 Activity calls are given as the source filed them. No stated cut-off is given here; in the data, active = GI50 up to about 1.1 µM and inactive = higher.

Tests used:
Test in all cases: growth of human tumour cells (NCI), 48 h
[1] = test system: HCT-116
[2] = test system: HL-60
[3] = test system: LXFL 529
[4] = test system: HCC 2998
[5] = test system: NCI-H522
[6] = test system: RPMI-8226
[7] = test system: CAKI-1
[8] = test system: SK-OV-3
[9] = test system: MDA-MB-231
[10] = test system: OVCAR-4
[11] = test system: MDA-MB-435
[12] = test system: IGROV-1
[13] = test system: KM12
[14] = test system: SF-295
[15] = test system: T47D
[16] = test system: TK-10
[17] = test system: CCRF-CEM
[18] = test system: 786-0
[19] = test system: UACC-62
[20] = test system: SNB-75

SMILES | GI50 [1] | GI50 [2] | GI50 [3] | GI50 [4] | GI50 [5] | GI50 [6] | GI50 [7] | GI50 [8] | GI50 [9] | GI50 [10] | GI50 [11] | GI50 [12] | GI50 [13] | GI50 [14] | GI50 [15] | GI50 [16] | GI50 [17] | GI50 [18] | GI50 [19] | GI50 [20]
CCCCCCCCCCCCCC(=O)OC(/C=C/C(C)C)C(O)C(O)C(OC)C(=O)NC1CCCCNC1=O (configuration not stated) | 0.242 µM (active) | 0.9 µM (active) | 1.39 µM (inactive) | 0.574 µM (active) | 0.836 µM (active) | 2.79 µM (inactive) | 0.48 µM (active) | 2.54 µM (inactive) | 2.58 µM (inactive) | 1.86 µM (inactive) | 5.97 µM (inactive) | 0.527 µM (active) | 0.448 µM (active) | 0.721 µM (active) | > 10 µM (inactive) | 5.6 µM (inactive) | 0.587 µM (active) | 0.308 µM (active) | 0.697 µM (active) | 2.05 µM (inactive)
CC(C)C/C(CC(=O)CCC(=O)Nc1ccccc1[N+](=O)[O-])=N\NC(=O)c1cc2ccccc2cc1O | 49.1 µM (inactive) | 23.2 µM (inactive) | 29.7 µM (inactive) | 36.6 µM (inactive) | 28.4 µM (inactive) | 50 µM (inactive) | 68.2 µM (inactive) | 79.6 µM (inactive) |  |  |  | 26 µM (inactive) | 67.6 µM (inactive) | 43.5 µM (inactive) |  | 51.2 µM (inactive) | 9.14 µM (inactive) | 36.8 µM (inactive) | 25.7 µM (inactive) | 37.7 µM (inactive)
CCOC(=O)C1C(c2ccc([N+](=O)[O-])cc2)NC(c2ccc([N+](=O)[O-])cc2)C(C(=O)OC)S1(=O)=O (configuration not stated) | > 100 µM (inactive) | > 100 µM (inactive) | > 100 µM (inactive) | > 100 µM (inactive) | > 100 µM (inactive) | > 100 µM (inactive) | > 100 µM (inactive) | > 100 µM (inactive) |  | > 100 µM (inactive) |  | > 100 µM (inactive) | > 100 µM (inactive) | > 100 µM (inactive) |  | > 100 µM (inactive) | > 100 µM (inactive) | > 100 µM (inactive) | > 100 µM (inactive) | > 100 µM (inactive)
COc1ccc(C2CC(c3cc(C)ccc3O)=NC(N)=N2)cc1 (configuration not stated) | > 100 µM (inactive) | > 100 µM (inactive) | > 100 µM (inactive) | > 100 µM (inactive) | > 100 µM (inactive) | > 100 µM (inactive) | > 100 µM (inactive) | > 100 µM (inactive) |  | > 100 µM (inactive) |  | > 100 µM (inactive) | > 100 µM (inactive) | > 100 µM (inactive) |  | > 100 µM (inactive) | > 100 µM (inactive) | > 100 µM (inactive) | > 100 µM (inactive) | > 100 µM (inactive)
N#C/C(=C/c1cccnc1)C(=O)c1ccccc1 | > 100 µM (inactive) | > 100 µM (inactive) | > 100 µM (inactive) | > 100 µM (inactive) | > 100 µM (inactive) | > 100 µM (inactive) | > 100 µM (inactive) | > 100 µM (inactive) |  | > 100 µM (inactive) |  |  | > 100 µM (inactive) | > 100 µM (inactive) |  | > 100 µM (inactive) | > 100 µM (inactive) | > 100 µM (inactive) | > 100 µM (inactive) | > 100 µM (inactive)
CC(=O)OCC1C(=O)OCC1C(=O)N1Cc2cc3ccccc3nc2C1 (configuration not stated) | 1.27 µM (inactive) | 0.794 µM (active) | 1.8 µM (inactive) | 10.4 µM (inactive) | 0.714 µM (active) | 1.37 µM (inactive) | 0.955 µM (active) | 16.7 µM (inactive) | 6.4 µM (inactive) | 1.65 µM (inactive) | 2.42 µM (inactive) | 10.1 µM (inactive) | 16.2 µM (inactive) | 16.1 µM (inactive) | 1.15 µM (inactive) | 1.61 µM (inactive) | 0.488 µM (active) | 1.58 µM (inactive) | 3.46 µM (inactive) | 4.58 µM (inactive)
N#Cc1c2ccccc2cn1-c1ccc(F)cc1 | 16.8 µM (inactive) | 4.62 µM (inactive) | 31.3 µM (inactive) | 43.9 µM (inactive) | 14.4 µM (inactive) | 22 µM (inactive) | 33 µM (inactive) |  |  | 8.73 µM (inactive) |  | 67.6 µM (inactive) | 21.8 µM (inactive) | 23.5 µM (inactive) |  | 29 µM (inactive) | 31 µM (inactive) | 30.3 µM (inactive) | 30 µM (inactive) | 2.61 µM (inactive)
CCOC(=O)/C(=C\c1ccc(N(CCC#N)CCC#N)cc1)NC(=O)c1cc([N+](=O)[O-])ccc1Cl | > 100 µM (inactive) | > 100 µM (inactive) | > 100 µM (inactive) | > 100 µM (inactive) | 56.1 µM (inactive) | 56.6 µM (inactive) | > 100 µM (inactive) | > 100 µM (inactive) |  | > 100 µM (inactive) |  | > 100 µM (inactive) | > 100 µM (inactive) | > 100 µM (inactive) |  | > 100 µM (inactive) | 55.1 µM (inactive) | > 100 µM (inactive) | > 100 µM (inactive) | > 100 µM (inactive)
Cc1cc2c(c3nocc13)C(=O)c1ccccc1C2=O |  | 98.2 µM (inactive) | > 100 µM (inactive) | > 100 µM (inactive) | > 100 µM (inactive) | > 100 µM (inactive) | > 100 µM (inactive) | > 100 µM (inactive) |  | > 100 µM (inactive) |  | > 100 µM (inactive) | > 100 µM (inactive) | > 100 µM (inactive) |  | > 100 µM (inactive) | > 100 µM (inactive) | > 100 µM (inactive) | > 100 µM (inactive) | 28.6 µM (inactive)
COc1cc(/C=C/c2ccc(OC)c(OC)c2OC)cc(OC)c1OC | 14.6 µM (inactive) | 23.1 µM (inactive) | 17.3 µM (inactive) | 13.2 µM (inactive) | 15.3 µM (inactive) | 14.1 µM (inactive) | 25.1 µM (inactive) | 24.7 µM (inactive) |  | 25.4 µM (inactive) |  | 28.2 µM (inactive) | 22 µM (inactive) | 20.8 µM (inactive) |  | 28.2 µM (inactive) | 22.4 µM (inactive) | 21.8 µM (inactive) | 13.4 µM (inactive) | 10.8 µM (inactive)
COc1ccc2nc3ccccc3c(NCCCCCN(CCCl)CCCl)c2c1 | 0.0295 µM (active) | < 0.0157 µM (active) | 0.112 µM (active) | 0.108 µM (active) | 0.0267 µM (active) | 0.0317 µM (active) | 0.0542 µM (active) | 0.192 µM (active) | 0.257 µM (active) | 0.0658 µM (active) | 0.17 µM (active) | 0.177 µM (active) | 0.0933 µM (active) | 0.0255 µM (active) | < 0.01 µM (active) | 0.381 µM (active) | 0.0151 µM (active) | 0.0218 µM (active) | 0.036 µM (active) | 0.0462 µM (active)
